Among the data in PubChem BioAssay AID2050 (NMMLSC, 2009) are EC50 and Ki values, retold here.

The source made the active and inactive calls.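 Rule for the calls: active = EC50 at or below 30 µM together with a response span of at least a set limit; inactive = the rest.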 Where only a bound is given, the exact number is not on record here.

The target of the first experiment is GTPase HRas (Homo sapiens) (UniProt P01112). Nature of the experiment: inhibition of fluorescent GTP binding to activated Ras – biochemical, pyrazoline analogs, multiplex bead flow cytometry, SAR follow-up (AID 2050). To be noted: GST-Ras beads, Bodipy-FL-GTP binding. On the technique in general: A flow cytometer gives signals particle by particle.
GTPase HRas (Homo sapiens), sequence (P01112 whole entry, looked up): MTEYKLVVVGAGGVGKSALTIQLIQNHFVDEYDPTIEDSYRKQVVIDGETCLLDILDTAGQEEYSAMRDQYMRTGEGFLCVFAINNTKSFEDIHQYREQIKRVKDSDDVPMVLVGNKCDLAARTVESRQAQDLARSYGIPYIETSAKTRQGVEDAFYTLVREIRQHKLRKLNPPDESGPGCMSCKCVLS
Broadly, the EC50 is the concentration that produces a half-maximal response. On to `Cc1ccccc1N1N=C(c2ccccc2)CC1c1cccc([N+](=O)[O-])c1` (stereo not drawn), for which the EC50 is > 30 µM (inactive).
Still for that read-out and setting: to `COc1ccc(C2=NN(c3cccc(F)c3)C(c3ccc(OC)cc3)C2)cc1` (stereo not drawn) belongs > 30 µM (inactive).
Regarding `O=[N+]([O-])c1cccc(C2CC(c3ccccc3)=NN2c2ccccc2)c1` (stereo not drawn), the EC50 is > 30 µM (inactive).
As to `COc1cccc(C2CC(c3ccccc3)=NN2c2ccc(S(N)(=O)=O)cc2)c1` (stereo not drawn), the EC50 is > 30 µM (inactive).
Still for that read-out and setting: to `COc1ccc(C2CC(c3ccccc3Cl)=NN2c2ccc(S(N)(=O)=O)cc2)cc1` (stereo not drawn) belongs > 30 µM (inactive); to `COc1ccc(C2=NN(c3ccc(Cl)cc3)C(c3ccccc3F)C2)cc1` (stereo not drawn), > 30 µM (inactive); to `Clc1ccc(N2N=C(c3ccccc3)CC2c2ccccc2)cc1` (stereo not drawn), > 30 µM (inactive).
The same measure, in the same setting: to `COc1ccc(C2CC(c3ccccc3F)=NN2c2ccc(S(N)(=O)=O)cc2)cc1` (stereo not drawn) belongs > 30 µM (inactive); to `NS(=O)(=O)c1ccc(N2N=C(c3ccc(Br)cc3)CC2c2ccc(F)cc2)cc1` (stereo not drawn), > 30 µM (inactive); to `COc1ccc(-c2cc(-c3ccccc3)nn2-c2ccc(S(N)(=O)=O)cc2)cc1`, > 30 µM (inactive).
For the compound `CN(C)c1ccc(C2CC(c3ccccc3)=NN2c2ccc([N+](=O)[O-])cc2)cc1` (stereo not drawn), the EC50 is > 30 µM (inactive).
On the same count and under the same terms, to `O=S(=O)(O)c1ccc(N2N=C(c3ccccc3)CC2c2ccccc2)cc1` (stereo not drawn) belongs > 30 µM (inactive).
Still for that read-out and setting: to `COc1ccc(C2CC(c3ccccc3)=NN2c2cccc(S(N)(=O)=O)c2)cc1` (stereo not drawn) belongs > 30 µM (inactive); to `COc1ccc(C2CC(c3ccc(Cl)cc3)=NN2c2ccc(S(N)(=O)=O)cc2)cc1` (stereo not drawn), > 30 µM (inactive); to `COc1ccc(C2CC(C(C)(C)C)=NN2c2ccc(S(N)(=O)=O)cc2)cc1` (stereo not drawn), > 30 µM (inactive).
With `COc1ccc(C2CC(c3ccc(C(F)(F)F)cc3)=NN2c2ccc(S(N)(=O)=O)cc2)cc1` (stereo not drawn), the EC50 is > 30 µM (inactive).
The same measure, in the same setting: to `COc1ccc(C2CC(c3ccc(F)cc3)=NN2c2ccccc2)cc1OC` (stereo not drawn) belongs > 30 µM (inactive); to `COc1ccccc1N1N=C(c2ccccc2)CC1c1ccccc1` (stereo not drawn), > 30 µM (inactive); to `COc1ccc(C2CC(c3cccc(Cl)c3)=NN2c2ccc(S(N)(=O)=O)cc2)cc1` (stereo not drawn), > 30 µM (inactive).
The same measure, in the same setting: to `COc1ccc(C2CC(c3ccc(F)cc3)=NN2c2ccc(S(N)(=O)=O)cc2)cc1` (stereo not drawn) belongs > 30 µM (inactive); to `COc1ccc(C2CC(c3ccccc3)=NN2c2ccc(C(N)=O)cc2)cc1` (stereo not drawn), > 30 µM (inactive).
Still for that read-out and setting: to `CN(C)c1ccc(C2CC(c3ccccc3)=NN2c2ccccc2)cc1` (stereo not drawn) belongs > 30 µM (inactive); to `COc1ccc(C2CC(c3ccccc3)=NN2c2ccc(C(=O)O)cc2)cc1` (stereo not drawn), > 30 µM (inactive); to `FC(F)(F)c1cccc(N2N=C(c3ccc(Cl)cc3)CC2c2ccccc2Cl)c1` (stereo not drawn), > 30 µM (inactive).
For `Cc1ccccc1N1N=C(c2ccccc2)CC1c1ccc(N(C)C)cc1` (stereo not drawn), the EC50 was > 30 µM (inactive).
Regarding `COc1ccc(C2CC(c3ccc(F)cc3)=NN2c2cc(Cl)ccc2Cl)cc1` (stereo not drawn), the EC50 was > 30 µM (inactive).
Take `COc1ccc(C2CC(c3ccc(N(C)C)cc3)=NN2c2ccc(S(N)(=O)=O)cc2)cc1` (stereo not drawn): the EC50 is > 30 µM (inactive).
Regarding `COc1ccc(C2CC(c3ccccc3C)=NN2c2ccc(S(N)(=O)=O)cc2)cc1` (stereo not drawn), the EC50 is > 30 µM (inactive).
The same measure, in the same setting: to `COc1ccc(C2CC(c3ccccc3C(F)(F)F)=NN2c2ccc(S(N)(=O)=O)cc2)cc1` (stereo not drawn) belongs > 30 µM (inactive).
Same read-out and setting: to `NS(=O)(=O)c1ccc(N2N=C(c3ccccc3)CC2c2ccccc2Br)cc1` (stereo not drawn) belongs > 30 µM (inactive); to `COc1ccc(C2=NN(c3ccccc3)C(c3ccc(Cl)cc3)C2)cc1` (stereo not drawn), “inactive”.
The same measure, in the same setting: to `COc1ccc(C2CC(c3ccccc3)=NN2c2ccc(S(N)(=O)=O)cc2)cc1OC` (stereo not drawn) belongs > 30 µM (inactive).

The same experiment, now with this note: GST-Ras beads, Bodipy-FL-GTP binding, measured here: Ki calculated from EC50.
By Ki is commonly meant a dissociation constant, usually derived from enzyme kinetics or from competition with a known ligand. For `COc1ccc(C2=NN(c3ccccc3)C(c3ccc(Cl)cc3)C2)cc1` (stereo not drawn), the inhibition constant (Ki) is 0.24 µM.
